Assay results as given in ChEMBL document CHEMBL2440076, “New triarylpyrazoles as broad-spectrum anticancer agents: design, synthesis, and biological evaluation” (Eur J Med Chem, 2013).

How the values were obtained:
Assay type in all cases: functional
[1] = test system: HT-29; assay: Growth inhibition of human HT-29 cells assessed as cell growth at 10^-5 M after 48 hrs by sulforhodamine B assay; conditions: HT-29, 48 h, read-out: Activity
[2] = test system: PC-3; assay: Growth inhibition of human PC3 cells assessed as cell growth at 10^-8 M after 48 hrs by sulforhodamine B assay; conditions: PC-3, 48 h, read-out: Activity
[3] = test system: OVCAR-5; assay: Growth inhibition of human OVCAR5 cells assessed as cell growth at 10^-5 M after 48 hrs by sulforhodamine B assay; conditions: OVCAR-5, 48 h, read-out: Activity
[4] = test system: Malme-3M; assay: Growth inhibition of human MALME-3M cells assessed as cell growth at 10^-5 M after 48 hrs by sulforhodamine B assay; conditions: read-out: Activity
[5] = test system: T47D; assay: Growth inhibition of human T47D cells assessed as cell growth at 10^-4 M after 48 hrs by sulforhodamine B assay; conditions: read-out: Activity
[6] = test system: RXF 393; assay: Growth inhibition of human RXF393 cells assessed as cell growth at 10^-6 M after 48 hrs by sulforhodamine B assay; conditions: RXF 393, 48 h, read-out: Activity
[7] = test system: TK-10; assay: Growth inhibition of human TK10 cells assessed as cell growth at 10^-7 M after 48 hrs by sulforhodamine B assay; conditions: TK-10, 48 h, read-out: Activity
[8] = test system: SN12C; assay: Growth inhibition of human SN12C cells assessed as cell growth at 10^-8 M after 48 hrs by sulforhodamine B assay; conditions: read-out: Activity
[9] = test system: TK-10; assay: Growth inhibition of human TK10 cells assessed as cell growth at 10^-5 M after 48 hrs by sulforhodamine B assay; conditions: TK-10, 48 h, read-out: Activity
[10] = test system: M14; assay: Growth inhibition of human M14 cells assessed as cell growth at 10^-8 M after 48 hrs by sulforhodamine B assay; conditions: M14, 48 h, read-out: Activity
[11] = test system: BT-549; assay: Growth inhibition of human BT549 cells assessed as cell growth at 10^-4 M after 48 hrs by sulforhodamine B assay; conditions: BT-549, 48 h, read-out: Activity
[12] = test system: MDA-MB-435; assay: Growth inhibition of human MDA-MB-435 cells assessed as cell growth at 10^-8 M after 48 hrs by sulforhodamine B assay; conditions: MDA-MB-435, 48 h, read-out: Activity
[13] = Growth inhibition of human HCC2998 cells assessed as cell growth at 10^-4 M after 48 hrs by sulforhodamine B assay; conditions: HCC 2998, 48 h, read-out: Activity
[14] = test system: HT-29; assay: Growth inhibition of human HT-29 cells assessed as cell growth at 10^-4 M after 48 hrs by sulforhodamine B assay; conditions: HT-29, 48 h, read-out: Activity
[15] = test system: SR; assay: Growth inhibition of human SR cells assessed as cell growth at 10^-6 M after 48 hrs by sulforhodamine B assay; conditions: read-out: Activity
[16] = test system: RPMI-8226; assay: Growth inhibition of human RPMI8226 cells assessed as cell growth at 10^-8 M after 48 hrs by sulforhodamine B assay; conditions: RPMI-8226, 48 h, read-out: Activity
[17] = test system: OVCAR-4; assay: Growth inhibition of human OVCAR4 cells assessed as cell growth at 10^-5 M after 48 hrs by sulforhodamine B assay; conditions: OVCAR-4, 48 h, read-out: Activity
[18] = test system: UO-31; assay: Growth inhibition of human UO31 cells assessed as cell growth at 10^-5 M after 48 hrs by sulforhodamine B assay; conditions: UO-31, 48 h, read-out: Activity
[19] = test system: A498; assay: Growth inhibition of human A498 cells assessed as cell growth at 10^-8 M after 48 hrs by sulforhodamine B assay; conditions: A498, 48 h, read-out: Activity
[20] = test system: SK-MEL-2; assay: Growth inhibition of human SK-MEL-2 cells assessed as cell growth at 10^-6 M after 48 hrs by sulforhodamine B assay; conditions: SK-MEL-2, 48 h, read-out: Activity
[21] = test system: SN12C; assay: Growth inhibition of human SN12C cells assessed as cell growth at 10^-7 M after 48 hrs by sulforhodamine B assay; conditions: read-out: Activity
[22] = test system: A498; assay: Growth inhibition of human A498 cells assessed as cell growth at 10^-5 M after 48 hrs by sulforhodamine B assay; conditions: A498, 48 h, read-out: Activity
[23] = test system: SK-MEL-28; assay: Growth inhibition of human SK-MEL-28 cells assessed as cell growth at 10^-5 M after 48 hrs by sulforhodamine B assay; conditions: SK-MEL-28, 48 h, read-out: Activity
[24] = test system: UACC-62; assay: Growth inhibition of human UACC62 cells assessed as cell growth at 10^-7 M after 48 hrs by sulforhodamine B assay; conditions: UACC-62, 48 h, read-out: Activity
[25] = Growth inhibition of human HCC2998 cells assessed as cell growth at 10^-7 M after 48 hrs by sulforhodamine B assay; conditions: HCC 2998, 48 h, read-out: Activity
[26] = test system: BT-549; assay: Growth inhibition of human BT549 cells assessed as cell growth at 10^-6 M after 48 hrs by sulforhodamine B assay; conditions: BT-549, 48 h, read-out: Activity
[27] = test system: SNB-75; assay: Growth inhibition of human SNB75 cells assessed as cell growth at 10^-6 M after 48 hrs by sulforhodamine B assay; conditions: SNB-75, 48 h, read-out: Activity
[28] = test system: DU-145; assay: Growth inhibition of human DU145 cells assessed as cell growth at 10^-6 M after 48 hrs by sulforhodamine B assay; conditions: DU-145, 48 h, read-out: Activity
[29] = test system: OVCAR-4; assay: Growth inhibition of human OVCAR4 cells assessed as cell growth at 10^-7 M after 48 hrs by sulforhodamine B assay; conditions: OVCAR-4, 48 h, read-out: Activity
[30] = test system: A549; assay: Growth inhibition of human A549/ATCC cells assessed as cell growth at 10^-4 M after 48 hrs by sulforhodamine B assay; conditions: A549, 48 h, read-out: Activity
[31] = Growth inhibition of human NCI-ADR-RES cells assessed as cell growth at 10^-7 M after 48 hrs by sulforhodamine B assay; conditions: read-out: Activity
[32] = test system: SK-MEL-2; assay: Growth inhibition of human SK-MEL-2 cells assessed as cell growth at 10^-5 M after 48 hrs by sulforhodamine B assay; conditions: SK-MEL-2, 48 h, read-out: Activity
[33] = test system: IGROV-1; assay: Growth inhibition of human IGROV1 cells assessed as cell growth at 10^-8 M after 48 hrs by sulforhodamine B assay; conditions: IGROV-1, 48 h, read-out: Activity
[34] = test system: NCI-H460; assay: Growth inhibition of human NCI-H460 cells assessed as cell growth at 10^-8 M after 48 hrs by sulforhodamine B assay; conditions: NCI-H460, 48 h, read-out: Activity
[35] = test system: HCT-15; assay: Growth inhibition of human HCT15 cells assessed as cell growth at 10^-5 M after 48 hrs by sulforhodamine B assay; conditions: HCT-15, 48 h, read-out: Activity
[36] = test system: NCI-H226; assay: Growth inhibition of human NCI-H226 cells assessed as cell growth at 10^-5 M after 48 hrs by sulforhodamine B assay; conditions: NCI-H226, 48 h, read-out: Activity
[37] = test system: SF-295; assay: Growth inhibition of human SF295 cells assessed as cell growth at 10^-5 M after 48 hrs by sulforhodamine B assay; conditions: SF-295, 48 h, read-out: Activity
[38] = test system: NCI-H322M; assay: Growth inhibition of human NCI-H322M cells assessed as cell growth at 10^-8 M after 48 hrs by sulforhodamine B assay; conditions: read-out: Activity

Compound | growth at 10 µM [1] | growth at 0.01 µM [2] | growth at 10 µM [3] | growth at 10 µM [4] | growth at 100 µM [5] | growth at 1 µM [6] | growth at 0.1 µM [7] | growth at 0.01 µM [8] | growth at 10 µM [9] | growth at 0.01 µM [10] | growth at 100 µM [11] | growth at 0.01 µM [12] | growth at 100 µM [13] | growth at 100 µM [14] | growth at 1 µM [15] | growth at 0.01 µM [16] | growth at 10 µM [17] | growth at 10 µM [18] | growth at 0.01 µM [19] | growth at 1 µM [20] | further results
COc1cc(-c2nn(-c3cccc(NC(=O)c4ccccc4)c3)cc2-c2ccncc2)ccc1Cl | 7% | 94% | 59% | 8% | 30% | 35% | 97% | 96% | 45% | 95% | 28% | 96% | -13% | 4% | 7% | 102% | 33% | 18% | 92% | 22% | growth at 0.1 µM [21]: 98%; growth at 10 µM [22]: -19%; growth at 10 µM [23]: 43%; growth at 0.1 µM [24]: 96%; growth at 0.1 µM [25]: 100%; growth at 1 µM [26]: 53%; growth at 1 µM [27]: 39%; growth at 1 µM [28]: 44%; growth at 0.1 µM [29]: 95%; growth at 100 µM [30]: 6%; growth at 0.1 µM [31]: 92%; growth at 10 µM [32]: -10%; growth at 0.01 µM [33]: 105%; growth at 0.01 µM [34]: 102%; growth at 10 µM [35]: 17%; growth at 10 µM [36]: 26%; growth at 10 µM [37]: -27%; growth at 0.01 µM [38]: 98%
COc1cc(-c2nn(-c3cccc(NC(=O)c4ccc(N5CCOCC5)c(C(F)(F)F)c4)c3)cc2-c2ccncc2)ccc1Cl | -43% | 92% | 16% | -14% | 13% | -16% | 106% | 95% | 14% | 98% | 9% | 90% | -46% | -43% | 8% | 102% | 32% | -5% | 90% | 24% | growth at 0.1 µM [21]: 90%; growth at 10 µM [22]: -32%; growth at 10 µM [23]: 14%; growth at 0.1 µM [24]: 56%; growth at 0.1 µM [25]: 92%; growth at 1 µM [26]: 54%; growth at 1 µM [27]: -2%; growth at 1 µM [28]: 16%; growth at 0.1 µM [29]: 92%; growth at 100 µM [30]: 4%; growth at 0.1 µM [31]: 72%; growth at 10 µM [32]: -2%; growth at 0.01 µM [33]: 111%; growth at 0.01 µM [34]: 100%; growth at 10 µM [35]: 7%; growth at 10 µM [36]: 15%; growth at 10 µM [37]: -64%; growth at 0.01 µM [38]: 103%
